“Also recorded” adds a separate entry of the source.
Legend:
[1] = system: c-GMP in aortic rat tissue; assay: Cyclic-GMP measurement in aortic rat tissue (radioimmunoassay); type: cell-based; conditions: for levels of cGMP as compared with GTN: isolated rat aorta, FIGS. 25, 27, 33
Description: GTN (10^−6 M) was added to the chamber and, 1 minute after exposure to the drug, rings (usually 3-5) were taken, wrapped with aluminum foil and immediately frozen in liquid nitrogen for storage. Control sample group was treated with the vehicle solution only. At the time of analysis, rings were thawed, blotted over a dry gauzed and weighted. A known weight of tissue was homogenized in 2 ml ice-cold modified Hank's balanced salt solution containing (in gram/liter) NaCl 8; KCl 0.4; glucose 1; KH2PO4 0.06; Na2HPO4 0.047; Phenol red 0.017 and further containing 25 mM EDTA (disodium salt). The homogenate was centrifuged at 4000 g (force units) for 10 minutes at 2-4° C. and the supernatant was thereafter transferred into fresh pre-cooled test tube containing 1 ml of acetonitrile. The tubes were vortex mixed for a few seconds and subsequently centrifuged at 4000 g for 5 minutes at 2-4° C., to remove the precipitated protein. Each supematant was transferred into a clean test tube and evaporated to dryness under a stream of nitrogen at 55° C. The dry residue was reconstituted with 10 volumes of Tris-EDTA buffer pH 7.5 (0.05 M Tris containing 4 mM EDTA). Aliquots of 100 μl of the reconstituted solution in duplicate were used for c-GMP measurements using Amersham RIA kit, as is described in Haj-Yehia & Benet [Pharmacology, 1995, 273, 1, pp. 94-100]. Standard curves were plotted with six concentrations (0, 0.5, 1, 2, 4 and 8 pmoles of c-GMP per tube).

isolated rat aorta [2] = assay: In vitro vasorelaxation of rat aortic rings contracted with epinephrine; type: cell-based; conditions: isolated rat aorta pre-treated in vitro with 1 μM epinephrine; figure legends
Description: Male Sprague Dawley rats were anaesthetized using intraperitoneal injection of ketamine and xylazine (50 and 10 milligram per kilogram, respectively) and the thoracic aorta, the large upper portion of the descending aorta, starting at the caudal border of the chest bone, was removed thereafter, while carefully removing the paraadventetial tissue surrounding the vessel. Aortae were cut into rings of 4-5 millimeters and mounted onto the tissue path. The path buffer (Krebs-bicrbonate) was constantly gassed with carbogen and maintained at 37° C. The rings were preloaded under 2 g tension and equilibrated for 90 minutes, while refreshing the buffer every 15 minutes. After stabilization, the rings were contracted with epinephrine (1 μM). Cumulative Concentration-Response Curves (CCRC) were measured for the vasorelaxing effect induced by adding various concentrations, ranging from 10^−10 M to 10^−5 M of Pet-2, Pet-3, Pet-7, Pet-8, Pet-12, Pet-24, Pet-43, Pet-59, Pet-147, Pet-152 and Pet-154, and glyceryltrinitrate (GTN), according to the procedure described in Feelich et al., Molecular Pharmacology, 56:243-253 (1999). The vehicle, which was used for this experiment was water:ethanol:propyleneglycol at proportional ratio of 1:1:1.

isolated rat aorta [3] = assay: In vitro induction of tolerance to NO releasing compounds (vasorelaxation after pre-exposure); type: cell-based; conditions: rat aorta pre-treated with epinephrine and then with the compound (0.44 mM) versus control
Description: Aortic rings were prepared as described hereinabove, and were exposed to 0.44 mM GTN (vehicle was water:ethanol:propyleneglycol at proportional ratio of 1:1:1) for 1 hour before CCRC construction, to thereby induce tolerance to nitroglycerine. At the end of the tolerance induction period, rings were thrice washed with the path buffer (Krebs-bicrbonate) every 15 minutes for the following hour and then CCRC for vasorelaxation on GTN-induced tolerance rings were constructed for GTN (pretreated versus untreated rings, FIG. 15), in order to verify the ability to induce and measure GTN tolerance induction in vitro
Attempted induction of tolerance to the NO-donating compounds of the present invention was performed under the same conditions as for GTN. Thus, in an exemplary experiment, rings were exposed to 0.44 mM solution of Pet-3 in the attempt to induce tolerance for Pet-3. CCRC were then measured for the vasorelaxing effect of Pet-3 on a group of rings which were pre-exposed to Pet-3 as to induce tolerance to Pet-3, and for an untreated control group. The above protocol was repeated with Pet-2, Pet-7, Pet-8, Pet-12, Pet-24, Pet-43, Pet-149 and Pet-152.

[4] = system: mean arterial blood pressure of rats; assay: Hypotensive effects: mean arterial pressure after iv bolus; type: in vivo, rat; conditions: anesthetized rats, phenylephrine, iv bolus doses
Description: Mean arterial pressure (MAP) was monitored and determined during bolus infusion of Pet-2, Pet-3, Pet-7, Pet-8, Pet-12 and Pet-13. Briefly, polyethylene catheters (PE50) were inserted into the carotid artery and into the jugular vein of anesthetized hypertensive Sprague-Dawley male rats (200-300 grams). A blood pressure recorder was placed within the carotid artery. Phenylephrine (0.1 mg) was then injected and the mean arterial blood pressure (MABP) was monitored continuously until a stable baseline was reached. The hypotensive effects of intravenous (iv) bolus doses (0.1 mg of each tested compound) administered intravenously at the jugular vein in minimal volume of vehicle (0.2 ml per dose) were evaluated. Five minutes were allowed between each dose, during which the maximal decrease in MAP was recorded and a dose-response graph comparing the hypotensive effect of the compounds was constructed.

[5] = system: cGMP in isolated aorta of rats pre-treated in vivo; assay: Induction of in vivo nitrate tolerance (cGMP in aorta after 16 hour infusion); set-up: species or system rat; conditions: for tolerance induction in vivo: cGMP accumulation in aorta of rats pre-treated in vivo, FIGS. 24, 26
Description: For c-GMP levels and tolerance development, the rat's thoracic aorta was isolated after exposure to the tested compound in vivo, and measured as described above in the in vitro assays.
Male Sprague Dawley rats (220 to 250 grams) were housed under constant temperature and humidity conditions. Light was maintained at a 12/12 light dark cycle. Except for 12 hours before the experiment, when food fasting was initiated, all rats had free access to standard rat pellet diet and tap water. The animals were anesthetized by intraperitoneal injection of ketamine and xylazine combination (50 and 10 milligram per kilogram, respectively). […] The catheters were filled with normal saline solution containing 1000 IU/ml of heparin and plugged with a metal pin. Catheters were externalized to the back of the neck region and secured by a polyester felt disk.
After implantation, the rats were individually housed until they regained their preoperative weight and appeared healthy (3 to 4 days post-operation). At this time point (day 0), an osmotic mini-pump (Alza Corp., Palo Alto, Calif.) delivering constant volume (10 μl/hour) of vehicle or drug was connected to one of the intravenous catheters.
For inducing tolerance to the tested NO-donor according to the present invention, the animals received 200 μg/hour of the tested compound for 16 hours (short-term-induced tolerance). A similar number of animals were processed by the same surgical procedure and received the vehicle alone (10 μl/hour of a solution consisting of 30% ethanol and 30% propylene glycol in sterile distilled water for injection).
At the end of the infusion periods used for the development of tolerance (16 hour), the rats were anesthetized as described above, the two catheters were externalized and the delivering catheters were disconnected from the mini-pump. The abdomen was opened by midline incision and the thoracic aorta were isolated, washed and cleaned from the surrounding tissues. […]

isolated rat aorta [6] = assay: Cross-tolerance study GTN / Pet-12 on aortic rings; type: cell-based
Description: Cross-tolerance studies were conducted using the same technique described above for measuring vasorelaxation of aortic rings from rats. Two groups of aortic rings samples were pre-treated with GTN, then one group was measured for vasorelaxation by GTN and the second group for vasorelaxation by Pet-12, an exemplary NO-donor according to the present invention. For the opposite cross-tolerance studies, two groups of aortic rings samples were pre-treated with Pet-12, then one group was measured for vasorelaxation by GTN and the second group for vasorelaxation by Pet-12.

SMILES	levels of cGMP as compared with GTN [1]	vasorelaxation effect as compared with glyceryltrinitrate (isolated rat aorta [2])	tolerance induction in vitro (isolated rat aorta [3])	hypotensive effect on MAP following successive administrations [4]	further results
Cc1nc(NC(=O)[C@@H](C)c2ccc(CC(C)C)cc2)sc1CCO[N+](=O)[O-] (stereo in doubt) [Pet-152, 2-(4-Isobutyl-phenyl)-N-[4-methyl-5-(2-nitrooxy-ethyl)-thiazol-2-yl]-propionamide]	increased levels of cGMP	superior	–	–	–
O=[N+]([O-])OCC(CO[N+](=O)[O-])O[N+](=O)[O-] [GTN, glyceryl trinitrate, reference compound]	–	–	tolerance induced	attenuation	c-GMP level following a repeated treatment ([1]; rat aorta): significantly reduced; level of cGMP following a repeated treatment in vivo ([5]; aorta of rats infused in vivo, FIG. 24): decreased; tolerance induction in vivo [5]: tolerance inducing effect
Cc1nc(C)c(CCO[N+](=O)[O-])s1 [Pet-3, 2,4-Dimethyl-5-(2-nitrooxy-ethyl)-thiazole]	increased levels of cGMP	superior	absence of tolerance induction	consistent and reproducible	–
Cc1nc(N(C)C)sc1CCO[N+](=O)[O-] [Pet-7, Dimethyl-[4-methyl-5-(2-nitrooxy-ethyl)-thiazol-2-yl]-amine]	increased levels of cGMP	–	absence of tolerance induction	consistent and reproducible	–
Cc1nc(-c2ccccc2)sc1CCO[N+](=O)[O-] [Pet-8, 4-Methyl-5-(2-nitrooxy-ethyl)-2-phenyl-thiazole]	increased levels of cGMP	superior	–	consistent and reproducible	–
Cc1nc(N)sc1CCO[N+](=O)[O-] [Pet-10, 4-methyl-5-(2-nitrooxy-ethyl)-thiazole-2-ylamine]	increased levels of cGMP	–	–	–	–
Cc1nc(-c2cccnc2)sc1CCO[N+](=O)[O-] [Pet-12, 3-[4-Methyl-5-(2-nitrooxy-ethyl)-thiazole-2-yl]-pyridine]	–	–	absence of tolerance induction	consistent and reproducible	effect of induced tolerance to GTN on vasorelaxation capacity (isolated rat aorta [6]; rings pre-treated with GTN): no effect; tolerance evoked by pre-treatment with Pet-12 (isolated rat aorta [6]; rings pre-treated with Pet-12, vasorelaxation by GTN or Pet-12): does not evoke tolerance to itself not to GTN; tolerance induction in vivo [5]: absence of tolerance induction; also recorded: lack of tolerance induction
Cc1nc(CCCCc2nc(C)c(CCO[N+](=O)[O-])s2)sc1CCO[N+](=O)[O-] [Pet-13]	–	–	–	consistent and reproducible	–
CNc1cncc(-c2nc(C)c(CCO[N+](=O)[O-])s2)n1 [Pet-24, Methyl-{6-[4-methyl-5-(2-nitrooxy-ethyl)-thiazol-2-yl]-pyrazin-2-yl}-amine]	increased levels of cGMP	–	absence of tolerance induction	–	–
Cc1nc(Nc2nc(C)c(CCO[N+](=O)[O-])s2)sc1CCO[N+](=O)[O-] [Pet-43, Bis-[4-methyl-5-(2-nitrooxy-ethyl)-thiazol-2-yl]-amine]	–	superior	absence of tolerance induction	–	–
Cc1nc(-c2ccc(C(F)(F)F)cc2)sc1CCO[N+](=O)[O-] [Pet-59, 4-Methyl-5-(2-nitrooxy-ethyl)-2-(4-trifluoromethyl-phenyl)-thiazole]	increased levels of cGMP	superior	–	–	–
CCNc1nc(C)c(CCO[N+](=O)[O-])s1 [Pet-147, Ethyl-[4-methyl-5-(2-nitrooxy-ethyl)-thiazol-2-yl]-amine]	increased levels of cGMP	–	–	–	–
Cc1nc(Nc2cccc3ccccc23)sc1CCO[N+](=O)[O-] [Pet-149, [4-Methyl-5-(2-nitrooxy-ethyl)-thiazol-2-yl]-naphthalen-1-yl-amine]	increased levels of cGMP	superior	absence of tolerance induction	–	–
Cc1nc(NC(=O)c2cccnc2)sc1CCO[N+](=O)[O-] [Pet-154, N-[4-methyl-5-(2-nitrooxy-ethyl)-thiazol-2-yl]-nicotinamide]	increased levels of cGMP	–	–	–	–
C=CCNc1nc(C)c(CCO[N+](=O)[O-])s1 [Pet-155, allyl-[4-methyl-5-(2-nitrooxy-ethyl)-thiazol-2-yl]-amine]	increased levels of cGMP	superior	–	–	–

From patent US7579477B2, “Thiazole-based nitric oxide donors having alkyl substituent(s) and uses thereof” (priority 2004, dated 2009)
